The structures appear in SMILES notation. Where only a bound is given, the exact number is not on record here.

Test system in one data set: not listed separately
In words: Safety index, ratio of cytotoxicity against human HT-29 cells to antimalarial activity against chloroquine-resistant Plasmodium falciparum FCR-3. Particulars: read-out: Selectivity Index. Type of data set: toxicity, cell-based.
Turning to `O=[N+]([O-])c1ccccc1S(=O)(=O)N1CCN(c2ccnc3cc(Cl)ccc23)CC1`, the selectivity ratio is 44.
Still for that read-out and setting: under `CCCS(=O)(=O)N1CCN(c2ccnc3cc(Cl)ccc23)CC1` stands 39.
On the same count and under the same terms, under `CC(=O)Nc1ccc(S(=O)(=O)N2CCN(c3ccnc4cc(Cl)ccc34)CC2)cc1` stands 84.

Test system in another data set: not listed separately
In words: Cytotoxicity against human HT-29 cells assessed as growth inhibition at 100 uM after 48 hrs by MTT assay relative to control. Type of data set: cell-based. To be noted: read-out: GI. For orientation: Formazan colour is commonly taken as a measure of viable cells.
`O=[N+]([O-])c1ccccc1S(=O)(=O)N1CCN(c2ccnc3cc(Cl)ccc23)CC1`: the inhibition at 48 h, 100 µM turned out to be 17%.
The same measure, in the same setting: in the case of `O=S(=O)(c1ccccc1)N1CCN(c2ccnc3cc(Cl)ccc23)CC1` it was 45%.
Same read-out and setting: in the case of `CCCS(=O)(=O)N1CCN(c2ccnc3cc(Cl)ccc23)CC1` it was 17%; in that of `CC(=O)Nc1ccc(S(=O)(=O)N2CCN(c3ccnc4cc(Cl)ccc34)CC2)cc1`, 17%.
On the same count and under the same terms, in the case of `CC[C@@]1(O)C(=O)OCc2c1cc1n(c2=O)Cc2cc3ccccc3nc2-1` [CAMPTOTHECIN] it was 52%.

Test system in the next data set: not listed separately
In words: Cytotoxicity against human HT-29 cells assessed as cell viability at 100 uM after 48 hrs by MTT assay relative to control. Format: cell-based. Particulars: read-out: Activity.
`CS(=O)(=O)N1CCN(c2ccnc3cc(Cl)ccc23)CC1`: the viability at 48 h, 100 µM worked out at 73%.
Still for that read-out and setting: in the case of `O=[N+]([O-])c1ccccc1S(=O)(=O)N1CCN(c2ccnc3cc(Cl)ccc23)CC1` it was 86.1%; in that of `O=S(=O)(c1ccccc1)N1CCN(c2ccnc3cc(Cl)ccc23)CC1`, 55.1%.
The same measure, in the same setting: under `Cc1ccc(S(=O)(=O)N2CCN(c3ccnc4cc(Cl)ccc34)CC2)cc1` stands 64.5%.
Same read-out and setting: under `O=S(=O)(c1ccc(Cl)cc1)N1CCN(c2ccnc3cc(Cl)ccc23)CC1` stands 61.3%.
Take `CCCS(=O)(=O)N1CCN(c2ccnc3cc(Cl)ccc23)CC1`: the viability at 48 h, 100 µM turned out to be 67.1%.
Still for that read-out and setting: in the case of `CC(C)(C)c1ccc(S(=O)(=O)N2CCN(c3ccnc4cc(Cl)ccc34)CC2)cc1` it was 67.7%; in that of `COc1ccc(S(=O)(=O)N2CCN(c3ccnc4cc(Cl)ccc34)CC2)cc1`, 68.1%; in that of `CC(=O)Nc1ccc(S(=O)(=O)N2CCN(c3ccnc4cc(Cl)ccc34)CC2)cc1`, 96.8%.
Turning to `O=S(=O)(c1ccc2ccccc2c1)N1CCN(c2ccnc3cc(Cl)ccc23)CC1`, the viability at 48 h, 100 µM came out at 59.8%.
Turning to `CC[C@@]1(O)C(=O)OCc2c1cc1n(c2=O)Cc2cc3ccccc3nc2-1` [CAMPTOTHECIN], the viability at 48 h, 100 µM was 48.3%.
On the same count and under the same terms, under `O=S(=O)(c1cc(Cl)ccc1Cl)N1CCN(c2ccnc3cc(Cl)ccc23)CC1` stands 63.4%.

Test system in the next data set: not listed separately
In words: Inhibition of beta-haematin formation after 24 hrs by microtiter plate assay. Type of data set: functional.
Details: not given
Take `CS(=O)(=O)N1CCN(c2ccnc3cc(Cl)ccc23)CC1`: the IC50 (as a rule, the concentration that gives 50% inhibition) was 13.5 µM.
The same measure, in the same setting: in the case of `O=[N+]([O-])c1ccccc1S(=O)(=O)N1CCN(c2ccnc3cc(Cl)ccc23)CC1` it was 63.5 µM.
`O=S(=O)(c1ccccc1)N1CCN(c2ccnc3cc(Cl)ccc23)CC1` showed a 50% inhibitory concentration (IC50) of 18.1 µM.
The same measure, in the same setting: under `C=C[C@H]1CN2CC[C@H]1C[C@H]2[C@H](O)c1ccnc2ccc(OC)cc12` [QUININE] stands 22.1 µM; under `Cc1ccc(S(=O)(=O)N2CCN(c3ccnc4cc(Cl)ccc34)CC2)cc1`, 8.92 µM.
On the same count and under the same terms, under `O=S(=O)(c1ccc(Cl)cc1)N1CCN(c2ccnc3cc(Cl)ccc23)CC1` stands 34.8 µM; under `CCCS(=O)(=O)N1CCN(c2ccnc3cc(Cl)ccc23)CC1`, 1.79 µM; under `CC(C)(C)c1ccc(S(=O)(=O)N2CCN(c3ccnc4cc(Cl)ccc34)CC2)cc1`, 72.4 µM.
The same measure, in the same setting: under `COc1ccc(S(=O)(=O)N2CCN(c3ccnc4cc(Cl)ccc34)CC2)cc1` stands 9.04 µM; under `CC(=O)Nc1ccc(S(=O)(=O)N2CCN(c3ccnc4cc(Cl)ccc34)CC2)cc1`, 8.84 µM.
As for `O=S(=O)(c1ccc2ccccc2c1)N1CCN(c2ccnc3cc(Cl)ccc23)CC1`, the IC50 came out at 71.2 µM.
On the same count and under the same terms, under `O=S(=O)(c1cc(Cl)ccc1Cl)N1CCN(c2ccnc3cc(Cl)ccc23)CC1` stands 47.2 µM.

Test system in the next data set: not listed separately
In words: Hemolytic activity in human RBC at 100 uM after 48 hrs relative to control. Type of data set: ADME, cell-based, Erythrocyte. Particulars: red blood cells, read-out: Activity.
`CS(=O)(=O)N1CCN(c2ccnc3cc(Cl)ccc23)CC1`: the hemolysis at 48 h, 100 µM turned out to be 0.01%.
The same measure, in the same setting: in the case of `O=[N+]([O-])c1ccccc1S(=O)(=O)N1CCN(c2ccnc3cc(Cl)ccc23)CC1` it was 0.01%; in that of `O=S(=O)(c1ccccc1)N1CCN(c2ccnc3cc(Cl)ccc23)CC1`, 0.01%.
For the molecule `C=C[C@H]1CN2CC[C@H]1C[C@H]2[C@H](O)c1ccnc2ccc(OC)cc12` [QUININE], the hemolysis at 48 h, 100 µM is 2.14%.
With `Cc1ccc(S(=O)(=O)N2CCN(c3ccnc4cc(Cl)ccc34)CC2)cc1`, the hemolysis at 48 h, 100 µM was determined as 0.62%.
For the molecule `O=S(=O)(c1ccc(Cl)cc1)N1CCN(c2ccnc3cc(Cl)ccc23)CC1`, the hemolysis at 48 h, 100 µM is 1.4%.
On the same count and under the same terms, in the case of `CCCS(=O)(=O)N1CCN(c2ccnc3cc(Cl)ccc23)CC1` it was 0.82%; in that of `CC(C)(C)c1ccc(S(=O)(=O)N2CCN(c3ccnc4cc(Cl)ccc34)CC2)cc1`, 1.36%; in that of `COc1ccc(S(=O)(=O)N2CCN(c3ccnc4cc(Cl)ccc34)CC2)cc1`, 6.03%.
On the same count and under the same terms, under `CC(=O)Nc1ccc(S(=O)(=O)N2CCN(c3ccnc4cc(Cl)ccc34)CC2)cc1` stands 0.83%; under `O=S(=O)(c1ccc2ccccc2c1)N1CCN(c2ccnc3cc(Cl)ccc23)CC1`, 0.97%; under `O=S(=O)(c1cc(Cl)ccc1Cl)N1CCN(c2ccnc3cc(Cl)ccc23)CC1`, 2.06%.

The test system of another data set is Plasmodium falciparum. In words: Antimalarial activity against chloroquine-resistant Plasmodium falciparum FCR-3 assessed as growth inhibition after 24 hrs by [3H]-hypoxanthine incorporation assay. Type of data set: functional. To be noted: FCR-3/Gambia.
On to `CS(=O)(=O)N1CCN(c2ccnc3cc(Cl)ccc23)CC1`, for which the IC50 was determined as 8.54 µM.
The same measure, in the same setting: in the case of `O=[N+]([O-])c1ccccc1S(=O)(=O)N1CCN(c2ccnc3cc(Cl)ccc23)CC1` it was 1.94 µM; in that of `O=S(=O)(c1ccccc1)N1CCN(c2ccnc3cc(Cl)ccc23)CC1`, 4.02 µM; in that of `C=C[C@H]1CN2CC[C@H]1C[C@H]2[C@H](O)c1ccnc2ccc(OC)cc12` [QUININE], 0.17 µM.
The same measure, in the same setting: in the case of `Cc1ccc(S(=O)(=O)N2CCN(c3ccnc4cc(Cl)ccc34)CC2)cc1` it was 4.22 µM; in that of `O=S(=O)(c1ccc(Cl)cc1)N1CCN(c2ccnc3cc(Cl)ccc23)CC1`, 3.27 µM; in that of `CCCS(=O)(=O)N1CCN(c2ccnc3cc(Cl)ccc23)CC1`, 1.72 µM.
Still for that read-out and setting: in the case of `CC(C)(C)c1ccc(S(=O)(=O)N2CCN(c3ccnc4cc(Cl)ccc34)CC2)cc1` it was 6.09 µM; in that of `COc1ccc(S(=O)(=O)N2CCN(c3ccnc4cc(Cl)ccc34)CC2)cc1`, 3.3 µM; in that of `CC(=O)Nc1ccc(S(=O)(=O)N2CCN(c3ccnc4cc(Cl)ccc34)CC2)cc1`, 1.16 µM.
As for `O=S(=O)(c1ccc2ccccc2c1)N1CCN(c2ccnc3cc(Cl)ccc23)CC1`, the IC50 worked out at 3.06 µM.
On the same count and under the same terms, in the case of `O=S(=O)(c1cc(Cl)ccc1Cl)N1CCN(c2ccnc3cc(Cl)ccc23)CC1` it was 2.55 µM.

The next data set has as its system Entamoeba histolytica. In words: Antiamoebic activity against trophozoite stage of Entamoeba histolytica HM-1:IMSS assessed as growth inhibition after 72 hrs by microdilution method. Type of data set: functional, organism-based.
Details: not given
In general terms: In broth dilution the organism is exposed to a series of concentrations in liquid medium.
On to `CS(=O)(=O)N1CCN(c2ccnc3cc(Cl)ccc23)CC1`, for which the 50% inhibitory concentration (IC50) was above 100 µM.
For `O=[N+]([O-])c1ccccc1S(=O)(=O)N1CCN(c2ccnc3cc(Cl)ccc23)CC1`, the IC50 is above 100 µM.
Still for that read-out and setting: in the case of `O=S(=O)(c1ccccc1)N1CCN(c2ccnc3cc(Cl)ccc23)CC1` it was 32.8 µM; in that of `Cc1ccc(S(=O)(=O)N2CCN(c3ccnc4cc(Cl)ccc34)CC2)cc1`, 4.54 µM.
On the same count and under the same terms, under `O=S(=O)(c1ccc(Cl)cc1)N1CCN(c2ccnc3cc(Cl)ccc23)CC1` stands 25.7 µM; under `CCCS(=O)(=O)N1CCN(c2ccnc3cc(Cl)ccc23)CC1`, above 100 µM.
Still for that read-out and setting: under `CC(C)(C)c1ccc(S(=O)(=O)N2CCN(c3ccnc4cc(Cl)ccc34)CC2)cc1` stands 2.86 µM; under `COc1ccc(S(=O)(=O)N2CCN(c3ccnc4cc(Cl)ccc34)CC2)cc1`, 8.23 µM; under `CC(=O)Nc1ccc(S(=O)(=O)N2CCN(c3ccnc4cc(Cl)ccc34)CC2)cc1`, 9.61 µM.
Take `O=S(=O)(c1ccc2ccccc2c1)N1CCN(c2ccnc3cc(Cl)ccc23)CC1`: the IC50 was 23.4 µM.
Same read-out and setting: in the case of `O=S(=O)(c1cc(Cl)ccc1Cl)N1CCN(c2ccnc3cc(Cl)ccc23)CC1` it was 30.2 µM.

Test system in the next data set: not listed separately
In words: Safety index, ratio of cytotoxicity against human HT-29 cells to antiamoebic activity against trophozoite stage of Entamoeba histolytica HM-1:IMSS. Type of data set: toxicity, cell-based. Particulars: read-out: Selectivity Index.
`Cc1ccc(S(=O)(=O)N2CCN(c3ccnc4cc(Cl)ccc34)CC2)cc1`: the selectivity ratio came to 14.
The same measure, in the same setting: under `CC(C)(C)c1ccc(S(=O)(=O)N2CCN(c3ccnc4cc(Cl)ccc34)CC2)cc1` stands 24.

The record behind these values is ChEMBL document CHEMBL2385001, “Synthesis and evaluation of 7-chloro-4-(piperazin-1-yl)quinoline-sulfonamide as hybrid antiprotozoal agents” (Bioorg Med Chem, 2013).
